Results on 22 compounds are retold here after patent US6083981A, “Sulfonamide substituted aspartic acid interleukin-1β converting enzyme inhibitors” (Warner-Lambert Company, priority 1999, dated 2000).

One data set deals with T1, Ich-2 (Caspase-4) (Homo sapiens, UniProt P49662).
T1 sequence (P49662 81-270 limits assumed): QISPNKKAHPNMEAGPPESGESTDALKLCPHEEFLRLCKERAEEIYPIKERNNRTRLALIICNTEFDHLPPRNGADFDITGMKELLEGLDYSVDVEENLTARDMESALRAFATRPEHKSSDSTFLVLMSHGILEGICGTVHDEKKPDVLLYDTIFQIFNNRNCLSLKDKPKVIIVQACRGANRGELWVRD
T1 sequence (P49662 290-377 limits assumed): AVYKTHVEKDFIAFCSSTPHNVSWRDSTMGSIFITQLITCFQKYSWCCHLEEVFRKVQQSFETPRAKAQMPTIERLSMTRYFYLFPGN
In words: Ich-2 (Caspase-4) Colorimetric Dose-Response (IC50) Assay. Type of data set: biochemical. To be noted: 64 nM enzyme, 60 μM Ac-Leu-Glu-Val-Asp-pNA. The protocol: (§1) ICE enzyme is diluted to approximately 24 nM in HGE buffer (100 mM Hepes pH 7.5, 0.5 mM EDTA, 20% glycerol, 0.1% Bovine Serum Albumin (BSA), and activated by adding dithiothreitol (DTT) to a final concentration of 5 mM. The activated enzyme is then aliquoted into wells containing inhibitor or vehicle, and the plate is preincubated for 60 minutes at ambient temperature. Substrate (Ac--Tyr--Val--Ala--Asp--pNA) is added to each well to a final concentration of 50 μM, and plates are placed in the microtitre plate-reader thermostated to 25° C. Beginning 5 minutes after addition of substrate, absorbance (405 nm) of wells is monitored for 1 hour, and activity is calculated as the mean rate of change in absorbance during this interval.
Inhibition of Ich-2 enzyme is assayed as described above for ICE, except that enzyme is used at 64 nM, and 60 μM of the Ich-2-specific substrate Ac--Leu--Glu--Val--Asp--pNA is used instead of the ICE substrate Ac--Tyr--Val--Ala--Asp--pNA.

The target in data set [1] is T2, ICE (Homo sapiens, UniProt P29466).
T2 sequence (P29466 120-297 limits assumed): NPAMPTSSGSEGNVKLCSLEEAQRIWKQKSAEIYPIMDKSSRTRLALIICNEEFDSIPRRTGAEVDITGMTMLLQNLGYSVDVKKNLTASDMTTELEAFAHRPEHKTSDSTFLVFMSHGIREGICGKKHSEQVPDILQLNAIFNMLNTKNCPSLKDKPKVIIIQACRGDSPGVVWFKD
T2 sequence (P29466 317-404 limits assumed): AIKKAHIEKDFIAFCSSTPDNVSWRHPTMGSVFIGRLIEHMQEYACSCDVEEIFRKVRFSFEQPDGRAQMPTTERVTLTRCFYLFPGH
The data set is described as follows: ICE Colorimetric Dose-Response (IC50) Assay. The class given is biochemical. To be noted: 24 nM ICE, 60 min preincubation, 50 μM Ac-Tyr-Val-Ala-Asp-pNA, pH 7.5, 25° C. The protocol:
Aliquots of each dilution are transferred to a microtitre plate in triplicate.
as §1

Data set [2] concerns the target T2, ICE. The data set is described as follows: ICE inhibition, fluorometric Ki (Ac-Tyr-Val-Ala-Asp-AMC substrate). The class given is biochemical. To be noted: 0.24 nM ICE, 15 μM Ac-Tyr-Val-Ala-Asp-AMC, reversible competitive model. Here is the method:
Substrate hydrolysis is monitored for 300 seconds by observing the fluorescence of released AMC using excitation at 380 nm and emission at 460 nm. Mean rates of substrate hydrolysis are evaluated by linear-regression analysis of the fluorescence vs time traces.

Data set [3] can be described thus: PBMC viability (MTT), compound toxicity. The class given is cell-based. To be noted: human, MTT viability, additional four hours, concentration which kills 50% of the cells, read-out: PBMC TC50. The source says:
(§2) Further evidence that compounds of Formula I, II, and III are inhibitors of ICE is provided by their ability to inhibit IL-1β production in human peripheral blood mononuclear cells (PBMCs) as described herein. PBMCs are isolated from heparinized blood by centrifugation over a ficoll cushion, then washed three times with phosphate-buffered saline. PBMCs are suspended in a medium containing RPMI 1640 with glutamine, penicillin, streptomycin, and 2% human AB serum, then plated at 10^6 cells per well in 96 well flat bottom plates. PBMCs are stimulated overnight with 10 ng/mL of lipopolysaccharide (LPS, E. Coli strain 0111:B4; Calbiochem) in the presence or absence of a compound of Formula I. Medium is harvested and the level of mature IL-1β was determined using an ELISA kit from R & D Systems. Compound inhibition is assessed by determining the concentration of agent which reduces IL-1β levels by 50%. Cells were cultured for an additional four hours in the presence of 3-(4,5-dimethylthiazol-2-yl)-2,5-diphenyltetrazolium bromide (MTT) to determine viability. Compound toxicity can, therefore, be assessed by determining the concentration of agent which kills 50% of the cells (IC50).

Data set [4] deals with IL-1β production in human peripheral blood mononuclear cells (PBMCs). The data set is described as follows: PBMC Cellular Assay, inhibition of LPS-stimulated IL-1β production. Type of data set: cell-based. To be noted: PBMC; mature IL-1β by ELISA, 10 ng/mL LPS overnight, 2% human AB serum.
Description: as §2
On the technique in general: An ELISA detects its analyte on a solid surface through an enzyme-linked reagent.

Consider “3-(2-Methylbutoxy-Benzenesulfonylamino)-4-Oxo-Butyric Acid [Example 30]”, for which the values for the IC50 against Ich-2 (Caspase-4) and on ICE [1] were 221 µM and 37 µM, respectively. Further, the Ki – broadly, the dissociation constant of the complex between target and ligand, obtained from inhibition or displacement – on ICE [2] turned out to be 4.2 µM.

On to `O=C[C@H](CC(=O)O)NS(=O)(=O)c1ccccc1-c1ccccc1` [Example 1, 3-(Biphenyl-2-Sulfoamino)-4-Oxo-Butyric Acid], for which the IC50 (in general, the concentration needed to halve the response being measured) was 88 µM against Ich-2 (Caspase-4), 20.3 µM against ICE [1] and > 100 µM in data set [4]. On ICE [2], this compound showed an inhibition constant (Ki) of 1.6 µM. For the same compound, the CC50 in data set [3] is > 100 µM.

For the compound `O=C[C@H](CC(=O)O)NS(=O)(=O)c1ccccc1` [Example 2, 3-Benzenesulfonylamino-4-Oxo-Butyric Acid], the concentration for half-maximal inhibition (IC50) against Ich-2 (Caspase-4) is 259 µM; at ICE [1], 86.8 µM; in data set [4] it was > 100 µM. Further, the affinity at ICE [2], expressed as Ki, was 6.8 µM.

For the compound `O=C[C@H](CC(=O)O)NS(=O)(=O)c1ccccc1Cc1ccccc1` [Example 3, 3-(2-Benzyl-Benzenesulfonylamino)-4-Oxo-Butyric Acid], the half-inhibitory concentration (IC50) against Ich-2 (Caspase-4) was found to be 70 µM; on ICE [1] it was 37 µM. On ICE [2], this compound gave a Ki of 3.7 µM.

Take `O=CC(CC(=O)O)NS(=O)(=O)c1ccccc1Oc1ccccc1` (centres unmarked) [Example 4, 4-Oxo-3-(2-Phenoxy-Benzenesulfonylamino)-Butyric Acid]: the IC50 at Ich-2 (Caspase-4) was 52 µM; on ICE [1], 24 µM.

Turning to `Cc1ccc(Oc2ccccc2S(=O)(=O)N[C@H](C=O)CC(=O)O)cc1` [Example 5, 4-Oxo-3-(2-p-Tolyloxy-Benzenesulfonylamino)-Butyric Acid], the half-maximal inhibitory concentration (IC50) was 18 µM against Ich-2 (Caspase-4), 8.8 µM against ICE [1] and 67.5 µM in data set [4]. In data set [3], the CC50 was > 100 µM.

Turning to `CC(C)c1ccc(Oc2ccccc2S(=O)(=O)NC(C=O)CC(=O)O)cc1` (centres unmarked) [Example 6, 3-[2-(4-Isopropyl-Phenoxy)-Benzenesulfonylamino]-4-Oxo-Butyric Acid], the IC50 at Ich-2 (Caspase-4) worked out at 6.1 µM; against ICE [1], 5.3 µM; in data set [4] it was 23.5 µM. On ICE [2], the Ki amounted to 0.54 µM. For the same compound, the CC50 in data set [3] was > 100 µM.

Take `Cc1cccc(Oc2ccccc2S(=O)(=O)N[C@H](C=O)CC(=O)O)c1` [Example 7, 4-Oxo-3-(2-m-Tolyloxy-Benzenesulfonylamino)-Butyric Acid]: the IC50 against Ich-2 (Caspase-4) was 33 µM; against ICE [1], 10.8 µM; in data set [4], 67.5 µM. For the same compound, in data set [3], the CC50 is > 100 µM.

On to `CC(C)c1cccc(Oc2ccccc2S(=O)(=O)N[C@H](C=O)CC(=O)O)c1` [Example 8, 3-[2-(3-lsopropyl-Phenoxy)-Benzenesulfonylamino]-4-Oxo-Butyric Acid], for which the half-inhibitory concentration (IC50) at Ich-2 (Caspase-4) is 6.1 µM; against ICE [1] it was 3.7 µM; in data set [4] it was 45 µM. The same compound gave a Ki at ICE [2] of 0.41 µM. The CC50 in data set [3] is > 100 µM.

Consider `Cc1ccc(-c2ccccc2S(=O)(=O)NC(C=O)CC(=O)O)cc1` (centres unmarked) [Example 9, 3-(4'-Methyl-Biphenyl-2-Sulfonylamino)-4-Oxo-Butyric Acid], for which the IC50 against Ich-2 (Caspase-4) is 109 µM; against ICE [1], 66.2 µM. The compound further displayed a Ki at ICE [2] of 6.4 µM.

As for `CC(C)COc1ccccc1S(=O)(=O)NC(C=O)CC(=O)O` (centres unmarked) [Example 10, 3-(2-Isobutoxy-Benzenesulfonylamino)-4-Oxo-Butyric Acid], the IC50 on Ich-2 (Caspase-4) was 318 µM; against ICE [1], 22 µM; in data set [4] it was 90 µM. The compound further had a Ki at ICE [2] of 4.2 µM. Further, the CC50 in data set [3] was > 100 µM.

As for `CCCC(C)C(=O)Nc1ccccc1S(=O)(=O)N[C@H](C=O)CC(=O)O` (some centres unmarked) [Example 11, 3-[2-(2-Methyl-Pentanoylamino)-Benzenesulfonylamino]-4-Oxo-Butyric Acid], the IC50 was found to be 569 µM against Ich-2 (Caspase-4) and 55 µM at ICE [1]. The compound also yielded a Ki on ICE [2] of 17 µM.

`Cc1ccccc1Oc1ccccc1S(=O)(=O)NC(C=O)CC(=O)O` (centres unmarked) [Example 12, 4-Oxo-3-(2-o-Tolyloxy-Benzenesulfonylamino)-Butyric Acid]: the concentration for half-maximal inhibition (IC50) at Ich-2 (Caspase-4) is 59 µM; against ICE [1], 14 µM; in data set [4], 90 µM. At ICE [2], the Ki was determined as 3 µM. Further, the CC50 in data set [3] is > 100 µM.

Turning to `O=CC(CC(=O)O)NS(=O)(=O)c1ccccc1CCc1ccccc1` (centres unmarked) [Example 13, 4-Oxo-3-(2-Phenethyl-Benzenesulfonylamino)-Butyric Acid], the figures for the 50% inhibitory concentration (IC50) at Ich-2 (Caspase-4) and against ICE [1] were 167 µM and 32 µM, respectively. In addition, the affinity at ICE [2], expressed as Ki, was 7 µM.

On to `Cc1cc(Oc2ccccc2S(=O)(=O)NC(C=O)CC(=O)O)ccc1C(C)C` (centres unmarked) [Example 22, 3-[2-(4-Isopropyl-3-Methyl-Phenoxy)-Benzenesulfonylamino]-4-Oxo-Butyric Acid], for which the figures for the IC50 (on Ich-2 (Caspase-4); against ICE [1]; in data set [4]) were 76 µM, 1 µM and 25 µM, respectively. Further, in data set [3], the CC50 is > 100 µM.

For `CCC(CC)c1ccc(Oc2ccccc2S(=O)(=O)NC(C=O)CC(=O)O)cc1` (centres unmarked) [Example 25, 3-{2-[4-(1-Ethyl-Propyl)-Phenoxy]-Benzenesulfonylamino}-4-Oxo-Butyric Acid], the IC50 amounted to 6.5 µM against Ich-2 (Caspase-4), 3.5 µM on ICE [1] and 27 µM in data set [4]. In data set [3], the CC50 is > 100 µM.

Consider `Cc1cc(Oc2ccccc2S(=O)(=O)NC(C=O)CC(=O)O)cc(C)c1C` (centres unmarked) [Example 26, 4-Oxo-3-[2-(3,4,5-Trimethyl-Phenoxy)-Benzenesulfonylamino]-Butyric Acid], for which the IC50 is 23 µM against Ich-2 (Caspase-4), 7.8 µM against ICE [1] and 58 µM in data set [4]. Moreover, the CC50 in data set [3] was > 100 µM.

For the compound `Cc1ccccc1-c1ccccc1S(=O)(=O)NC(C=O)CC(=O)O` (centres unmarked) [Example 32, 3-(2'-Methyl-Biphenyl-2-Sulfonylamino)-4-Oxo-Butyric Acid], the IC50 amounted to 603 µM on Ich-2 (Caspase-4) and 28 µM at ICE [1]. This compound also yielded an inhibitory constant (Ki) at ICE [2] of 7 µM.

On Ich-2 (Caspase-4), `O=CC(CC(=O)O)NS(=O)(=O)c1ccccc1-c1cccc2ccccc12` (centres unmarked) [Example 33, 3-(2-Naphthalen-1-yl-Benzenesulfonylamino)-4-Oxo-Butyric Acid] showed an IC50 of 77 µM. Moreover, on ICE [2], the Ki was 7 µM.

Take `O=CC(CC(=O)O)NS(=O)(=O)c1cccc2ccccc12` (centres unmarked) [Example 34, 3-(Naphthalene-1-Sulfonylamino)-4-Oxo-Butyric Acid]: the results for the IC50 on Ich-2 (Caspase-4) and on ICE [1] were 602 µM and 110 µM, respectively. At ICE [2], this compound showed a Ki of 31 µM.

For the compound `O=CC(CC(=O)O)NS(=O)(=O)c1ccccc1OCC1CCCO1` (centres unmarked) [Example 43, 4-Oxo-3-[2-(Tetrahydro-Furan-2-Ylmethoxy)-Benzenesulfonylamino]-Butyric Acid], the half-maximal inhibitory concentration (IC50) against Ich-2 (Caspase-4) is 1970 µM; against ICE [1], 99 µM. The affinity at ICE [2] corresponds to a Ki of 7.7 µM.

As for `O=CC(CC(=O)O)NS(=O)(=O)c1ccccc1[N+](=O)[O-]` (centres unmarked) [Example 46, 3-(2-Nitro-Benzenesulfonylamino)-4-Oxo-Butyric Acid], the half-inhibitory concentration (IC50) at Ich-2 (Caspase-4) was 525 µM; at ICE [1] it was 130 µM. Also, the affinity on ICE [2] corresponds to a Ki of 10 µM.
